Results: PMC7714403 (JCI Insight, 2020)
pIC50: −log10 of the molar value.

Assays:
MAST3 = MAST3 (Homo sapiens, UniProt O60307); assay: KiNativ, OCI cells live cell; type: cell-based; details: 2 h, labeling site Lys2, peptide […]
40 kinases = details: 200 nM; 11 of 40 kinases; cited from earlier work
SMG1 = SMG1 (Homo sapiens, UniProt Q96Q15); assay: KiNativ, OCI cells live cell; type: cell-based; details: labeling site ATP
PI4KA = PI4KA (Homo sapiens, UniProt P42356); assay: KiNativ, OCI cells live cell; type: cell-based; details: 2 h, labeling site ATP, peptide […]
MASTL = biological target: T1, MASTL (Homo sapiens, UniProt Q96GX5); assay: KiNativ, OCI cells live cell; type: cell-based
T1 sequence (Q96GX5 1-879): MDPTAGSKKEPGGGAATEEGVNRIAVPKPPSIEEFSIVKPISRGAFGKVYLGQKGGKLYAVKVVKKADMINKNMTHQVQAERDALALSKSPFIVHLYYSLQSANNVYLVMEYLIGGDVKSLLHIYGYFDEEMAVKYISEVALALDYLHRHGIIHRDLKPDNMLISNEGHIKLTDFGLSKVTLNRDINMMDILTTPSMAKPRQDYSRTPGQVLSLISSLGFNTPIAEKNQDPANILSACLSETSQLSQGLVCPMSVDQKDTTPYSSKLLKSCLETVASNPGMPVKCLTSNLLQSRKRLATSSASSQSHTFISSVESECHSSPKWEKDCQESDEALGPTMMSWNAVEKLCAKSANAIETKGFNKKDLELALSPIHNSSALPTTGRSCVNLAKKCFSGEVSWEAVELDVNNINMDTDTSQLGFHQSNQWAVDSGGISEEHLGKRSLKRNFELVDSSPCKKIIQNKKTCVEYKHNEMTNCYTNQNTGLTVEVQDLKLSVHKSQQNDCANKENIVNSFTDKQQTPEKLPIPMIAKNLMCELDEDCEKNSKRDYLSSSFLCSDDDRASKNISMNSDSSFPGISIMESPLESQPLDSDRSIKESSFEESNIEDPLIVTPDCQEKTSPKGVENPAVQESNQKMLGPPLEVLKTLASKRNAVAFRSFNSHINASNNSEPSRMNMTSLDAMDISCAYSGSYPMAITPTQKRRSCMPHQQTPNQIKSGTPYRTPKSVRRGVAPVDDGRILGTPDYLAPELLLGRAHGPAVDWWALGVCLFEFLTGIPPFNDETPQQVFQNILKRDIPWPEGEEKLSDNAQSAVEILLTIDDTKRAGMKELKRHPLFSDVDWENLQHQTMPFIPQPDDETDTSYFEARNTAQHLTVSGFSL

JAK3 domain2 = biological target: T2, JAK3 domain2 (Homo sapiens, UniProt P52333); assay: KiNativ, OCI cells live cell; type: cell-based; details: 2 h, labeling site Lys1, peptide […]
T2 construct: JAK3 domain2

FRAP = FRAP (Homo sapiens, UniProt P42345); assay: KiNativ, OCI cells live cell; type: cell-based; details: 2 h, labeling site ATP, peptide […]
PRP4 = PRP4 (Homo sapiens, UniProt Q13523); assay: KiNativ, OCI cells live cell; type: cell-based; details: 2 h, labeling site Lys2, peptide […]
SRPK1, SRPK2 = assay: KiNativ, OCI cells live cell; type: cell-based, human; details: labeling site Lys1, peptide FVAMKVVK
PIK3C3 = PIK3C3 (Homo sapiens, UniProt Q8NEB9); assay: KiNativ, OCI cells live cell; type: cell-based; details: 2 h, labeling site ATP
FLT3 ITD = FLT3 ITD (Homo sapiens, UniProt P36888, ITD); assay: Kinase assay by Reaction Biology; type: biochemical; details: enzymatic kinase assay
JAK1 domain2 = biological target: T3, JAK1 domain2 (Homo sapiens, UniProt P23458); assay: KiNativ, OCI cells live cell; type: cell-based
T3 construct: JAK1 domain2
T3 sequence (P23458 whole entry, the tested form may be a part): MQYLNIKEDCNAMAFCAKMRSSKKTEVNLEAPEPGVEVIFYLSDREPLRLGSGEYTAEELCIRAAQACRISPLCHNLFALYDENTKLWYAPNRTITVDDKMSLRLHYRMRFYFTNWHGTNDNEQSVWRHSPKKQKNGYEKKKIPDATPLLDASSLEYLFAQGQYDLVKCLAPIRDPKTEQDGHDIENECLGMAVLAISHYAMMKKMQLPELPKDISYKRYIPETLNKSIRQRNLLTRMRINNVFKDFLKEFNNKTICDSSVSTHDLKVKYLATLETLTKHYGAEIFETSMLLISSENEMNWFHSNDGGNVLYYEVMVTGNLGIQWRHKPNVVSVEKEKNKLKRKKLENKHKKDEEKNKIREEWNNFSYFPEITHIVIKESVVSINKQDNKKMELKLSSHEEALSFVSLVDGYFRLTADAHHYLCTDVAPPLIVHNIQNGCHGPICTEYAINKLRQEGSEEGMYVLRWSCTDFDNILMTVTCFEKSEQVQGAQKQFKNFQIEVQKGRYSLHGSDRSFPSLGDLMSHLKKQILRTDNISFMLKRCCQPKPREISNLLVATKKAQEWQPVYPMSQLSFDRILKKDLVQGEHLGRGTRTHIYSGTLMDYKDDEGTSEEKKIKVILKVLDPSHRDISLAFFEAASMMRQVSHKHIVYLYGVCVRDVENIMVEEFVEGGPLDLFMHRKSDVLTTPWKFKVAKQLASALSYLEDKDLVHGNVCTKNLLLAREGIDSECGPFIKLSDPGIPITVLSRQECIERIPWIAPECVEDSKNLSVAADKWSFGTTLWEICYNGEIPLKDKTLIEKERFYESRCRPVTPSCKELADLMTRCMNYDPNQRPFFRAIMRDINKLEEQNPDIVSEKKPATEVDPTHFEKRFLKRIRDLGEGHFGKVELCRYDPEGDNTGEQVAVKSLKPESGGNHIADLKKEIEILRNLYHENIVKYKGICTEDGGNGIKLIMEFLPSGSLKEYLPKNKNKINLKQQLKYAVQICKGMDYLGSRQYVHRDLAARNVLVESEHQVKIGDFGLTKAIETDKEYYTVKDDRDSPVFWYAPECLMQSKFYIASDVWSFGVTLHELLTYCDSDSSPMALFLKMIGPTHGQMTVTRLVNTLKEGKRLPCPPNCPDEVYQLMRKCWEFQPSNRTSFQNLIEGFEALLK

Chain of PIK3C3 (Q8NEB9 whole entry): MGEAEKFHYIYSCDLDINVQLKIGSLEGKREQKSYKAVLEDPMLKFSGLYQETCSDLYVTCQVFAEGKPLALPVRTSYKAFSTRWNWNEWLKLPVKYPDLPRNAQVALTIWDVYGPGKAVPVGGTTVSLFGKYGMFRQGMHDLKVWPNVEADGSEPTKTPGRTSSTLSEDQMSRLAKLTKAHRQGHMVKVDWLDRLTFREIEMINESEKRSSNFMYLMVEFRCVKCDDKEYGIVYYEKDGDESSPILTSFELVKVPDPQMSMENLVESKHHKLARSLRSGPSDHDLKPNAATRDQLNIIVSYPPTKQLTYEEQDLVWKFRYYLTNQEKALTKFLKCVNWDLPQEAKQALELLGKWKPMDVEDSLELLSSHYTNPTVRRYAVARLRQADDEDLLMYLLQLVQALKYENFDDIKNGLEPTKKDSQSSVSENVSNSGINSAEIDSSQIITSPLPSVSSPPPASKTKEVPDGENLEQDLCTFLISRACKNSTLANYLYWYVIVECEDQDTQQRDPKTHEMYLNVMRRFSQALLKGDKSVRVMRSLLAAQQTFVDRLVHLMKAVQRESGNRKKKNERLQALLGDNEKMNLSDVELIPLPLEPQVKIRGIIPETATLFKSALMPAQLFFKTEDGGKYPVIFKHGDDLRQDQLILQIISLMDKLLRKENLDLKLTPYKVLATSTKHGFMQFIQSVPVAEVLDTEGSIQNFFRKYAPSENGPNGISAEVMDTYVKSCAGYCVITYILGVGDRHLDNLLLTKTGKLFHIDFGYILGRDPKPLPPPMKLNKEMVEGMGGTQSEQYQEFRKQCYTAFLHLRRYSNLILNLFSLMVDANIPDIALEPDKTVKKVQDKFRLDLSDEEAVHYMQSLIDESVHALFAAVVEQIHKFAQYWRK
Chain of PRP4 (Q13523 whole entry): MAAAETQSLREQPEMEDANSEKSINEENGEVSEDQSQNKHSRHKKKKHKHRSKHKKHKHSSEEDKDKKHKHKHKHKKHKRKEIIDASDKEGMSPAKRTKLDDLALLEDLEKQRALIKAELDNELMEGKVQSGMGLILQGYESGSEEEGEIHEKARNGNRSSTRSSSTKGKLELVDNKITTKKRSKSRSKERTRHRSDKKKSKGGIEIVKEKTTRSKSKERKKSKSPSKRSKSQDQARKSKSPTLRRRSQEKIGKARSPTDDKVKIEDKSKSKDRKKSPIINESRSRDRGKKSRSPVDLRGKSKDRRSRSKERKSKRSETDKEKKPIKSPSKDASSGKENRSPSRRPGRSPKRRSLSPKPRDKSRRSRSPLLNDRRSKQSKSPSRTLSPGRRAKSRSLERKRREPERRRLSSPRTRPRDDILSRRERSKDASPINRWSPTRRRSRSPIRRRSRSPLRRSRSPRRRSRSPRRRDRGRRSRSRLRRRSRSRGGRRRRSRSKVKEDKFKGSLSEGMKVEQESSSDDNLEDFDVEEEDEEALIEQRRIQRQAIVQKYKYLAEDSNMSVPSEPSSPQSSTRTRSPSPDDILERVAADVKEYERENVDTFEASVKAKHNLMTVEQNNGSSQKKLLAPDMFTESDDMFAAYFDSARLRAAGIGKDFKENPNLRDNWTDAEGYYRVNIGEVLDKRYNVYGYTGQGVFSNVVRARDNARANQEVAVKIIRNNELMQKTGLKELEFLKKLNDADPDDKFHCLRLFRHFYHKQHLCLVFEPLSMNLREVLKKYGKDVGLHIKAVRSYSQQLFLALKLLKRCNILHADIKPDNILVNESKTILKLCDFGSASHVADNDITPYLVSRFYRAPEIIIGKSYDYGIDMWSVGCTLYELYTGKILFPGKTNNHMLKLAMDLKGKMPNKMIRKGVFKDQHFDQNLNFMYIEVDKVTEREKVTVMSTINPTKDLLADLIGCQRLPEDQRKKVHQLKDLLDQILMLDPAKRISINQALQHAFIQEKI
Chain of MAST3 (O60307 whole entry): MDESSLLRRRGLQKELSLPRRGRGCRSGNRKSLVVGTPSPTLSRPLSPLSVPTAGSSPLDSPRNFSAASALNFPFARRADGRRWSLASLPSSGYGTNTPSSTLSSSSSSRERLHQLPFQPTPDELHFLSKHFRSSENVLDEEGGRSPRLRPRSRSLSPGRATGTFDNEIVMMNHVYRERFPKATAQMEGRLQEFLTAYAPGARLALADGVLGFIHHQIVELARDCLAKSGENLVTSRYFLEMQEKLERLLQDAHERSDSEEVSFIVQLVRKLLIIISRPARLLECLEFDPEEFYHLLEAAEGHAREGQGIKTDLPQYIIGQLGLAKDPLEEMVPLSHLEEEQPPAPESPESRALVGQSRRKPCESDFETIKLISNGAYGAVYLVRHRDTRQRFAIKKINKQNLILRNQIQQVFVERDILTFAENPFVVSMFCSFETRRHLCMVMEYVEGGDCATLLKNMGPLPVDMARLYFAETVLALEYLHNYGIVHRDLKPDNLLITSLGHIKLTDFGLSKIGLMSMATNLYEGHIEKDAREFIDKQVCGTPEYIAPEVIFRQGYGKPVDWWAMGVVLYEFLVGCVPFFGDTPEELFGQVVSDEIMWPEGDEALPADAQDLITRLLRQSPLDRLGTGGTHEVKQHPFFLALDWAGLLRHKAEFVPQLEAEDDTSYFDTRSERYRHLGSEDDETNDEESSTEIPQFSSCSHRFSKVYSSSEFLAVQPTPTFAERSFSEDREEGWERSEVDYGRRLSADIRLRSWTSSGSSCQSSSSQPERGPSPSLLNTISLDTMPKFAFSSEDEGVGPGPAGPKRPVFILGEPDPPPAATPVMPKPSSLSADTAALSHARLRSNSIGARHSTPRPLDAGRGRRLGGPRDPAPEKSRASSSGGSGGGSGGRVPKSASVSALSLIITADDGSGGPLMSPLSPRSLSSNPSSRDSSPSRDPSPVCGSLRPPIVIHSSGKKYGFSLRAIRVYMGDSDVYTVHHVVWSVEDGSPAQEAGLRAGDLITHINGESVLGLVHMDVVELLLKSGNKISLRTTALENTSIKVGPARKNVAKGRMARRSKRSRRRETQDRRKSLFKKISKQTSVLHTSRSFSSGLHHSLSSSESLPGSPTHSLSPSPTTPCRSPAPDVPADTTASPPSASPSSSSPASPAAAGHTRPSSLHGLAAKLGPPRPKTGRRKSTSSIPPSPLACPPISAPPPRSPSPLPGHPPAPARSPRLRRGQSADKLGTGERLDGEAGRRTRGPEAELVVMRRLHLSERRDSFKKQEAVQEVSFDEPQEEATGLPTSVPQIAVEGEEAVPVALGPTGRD
Chain of FLT3 ITD (P36888 564-993, change not shown): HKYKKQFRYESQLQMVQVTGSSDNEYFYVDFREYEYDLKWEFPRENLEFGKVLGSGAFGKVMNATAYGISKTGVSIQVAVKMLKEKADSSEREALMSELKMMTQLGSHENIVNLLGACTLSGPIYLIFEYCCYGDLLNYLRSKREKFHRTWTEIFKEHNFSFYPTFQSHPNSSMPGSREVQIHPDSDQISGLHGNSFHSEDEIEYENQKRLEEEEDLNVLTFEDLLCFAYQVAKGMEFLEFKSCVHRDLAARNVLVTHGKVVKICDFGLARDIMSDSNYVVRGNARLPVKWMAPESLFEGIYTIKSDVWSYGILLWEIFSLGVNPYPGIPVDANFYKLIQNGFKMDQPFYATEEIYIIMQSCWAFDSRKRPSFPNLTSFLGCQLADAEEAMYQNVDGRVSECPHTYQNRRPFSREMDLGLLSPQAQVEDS

SMILES: CN1CCN(Cc2ccc(Nc3ncc(Cl)c(Nc4ccccc4S(=O)(=O)N(C)C)n3)cc2)CC1 [TP-0903]
- inhibition at 0.1 µM (MAST3): -0.112%
- Inhibition of kinases (40 kinases): > 50%
- Inhibition (SMG1; peptide DTVTIHSVGGTITILPTKTKPK): 12.1%
- Inhibition (SMG1; peptide SYPYLFKGLEDLHLDER): -6.4%
- inhibition at 0.1 µM (PI4KA): -14.6%
- Inhibition (MASTL; labeling site ATP Loop, peptide GAFGKVYLGQK): 6.7%
- Inhibition (MASTL; labeling site Lys1, peptide LYAVKVVK): 34.3%
- inhibition at 0.1 µM (JAK3 domain2): 31%
- inhibition at 0.1 µM (FRAP): 7.9%
- inhibition at 0.1 µM (PRP4): -18.7%
- Inhibition (SRPK1, SRPK2): -36.9%
- inhibition at 0.1 µM (PIK3C3; peptide TEDGGKYPVIFKHGDDLR): -16.8%
- inhibition at 0.1 µM (PIK3C3; peptide TEDGGKYPVIFKHGDDLRQDQLILQIISLMDK): -18.2%
- pIC50 (FLT3 ITD): 8.41
- Inhibition (JAK1 domain2; labeling site Activation Loop, peptide IGDFGLTKAIETDKEYYTVK): -56.4%
- Inhibition (JAK1 domain2; labeling site Lys1, peptide YDPEGDNTGEQVAVKSLKPESGGNHIADLKK): -85.5%
